In article PMC2229537 (The Journal of General Physiology, 2002):
Several values for one entry are separate records, joined by “and”; a condition that tells them apart may be missing. Identical values can stand only once.

Assays:
[1] = molecular target: wild-type AChR (Homo sapiens, UniProt P02708+Q04844+Q07001); assay type: binding; conditions: 100 μM proadifen
[2] = system: adult human receptor; conditions: resting closed state; ref Ohno et al., 1996; Wang et al., 1999; cited from earlier work
[3] = system: Torpedo receptor; conditions: resting closed state; ref Sine et al., 1990; cited from earlier work
[4] = system: fetal mouse receptor; conditions: resting closed state; ref Zhang et al., 1995; cited from earlier work
[5] = system: EP AChRs of CMS patient (εD175N and εN182Y); assay: Patch-clamp recordings of ACh-elicited channel currents from patient endplates; assay type: cell-based, human; conditions: −80 mV
[6] = ACh 5 μM, 8 kHz, 22°C, mean ± SE, four EPs

Sequence of wild-type AChR (P02708 21-457): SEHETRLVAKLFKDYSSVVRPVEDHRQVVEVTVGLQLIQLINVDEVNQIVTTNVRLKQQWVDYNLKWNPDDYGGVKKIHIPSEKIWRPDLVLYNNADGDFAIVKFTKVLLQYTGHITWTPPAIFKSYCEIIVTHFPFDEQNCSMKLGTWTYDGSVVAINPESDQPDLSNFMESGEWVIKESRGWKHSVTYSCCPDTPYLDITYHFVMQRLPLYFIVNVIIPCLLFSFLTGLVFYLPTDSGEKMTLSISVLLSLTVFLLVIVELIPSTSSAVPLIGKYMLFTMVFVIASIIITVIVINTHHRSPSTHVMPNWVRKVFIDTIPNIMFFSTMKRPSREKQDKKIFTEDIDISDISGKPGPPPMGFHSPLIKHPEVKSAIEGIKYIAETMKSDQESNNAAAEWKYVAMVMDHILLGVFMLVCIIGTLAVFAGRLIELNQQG
Sequence of wild-type AChR (P11230 24-501 partner): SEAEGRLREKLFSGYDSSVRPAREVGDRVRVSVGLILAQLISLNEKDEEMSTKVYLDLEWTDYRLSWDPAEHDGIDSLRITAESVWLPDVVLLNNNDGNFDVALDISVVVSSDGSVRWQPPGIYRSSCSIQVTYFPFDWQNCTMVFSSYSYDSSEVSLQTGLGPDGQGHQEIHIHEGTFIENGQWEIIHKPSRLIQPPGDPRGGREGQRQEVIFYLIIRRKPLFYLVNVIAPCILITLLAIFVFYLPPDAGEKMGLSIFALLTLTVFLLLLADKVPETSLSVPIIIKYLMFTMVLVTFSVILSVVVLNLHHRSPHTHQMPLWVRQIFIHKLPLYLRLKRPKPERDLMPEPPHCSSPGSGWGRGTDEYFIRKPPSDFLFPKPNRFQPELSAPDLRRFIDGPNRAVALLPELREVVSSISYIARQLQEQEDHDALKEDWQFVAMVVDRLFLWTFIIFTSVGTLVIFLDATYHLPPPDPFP
Sequence of wild-type AChR (Q07001 22-517): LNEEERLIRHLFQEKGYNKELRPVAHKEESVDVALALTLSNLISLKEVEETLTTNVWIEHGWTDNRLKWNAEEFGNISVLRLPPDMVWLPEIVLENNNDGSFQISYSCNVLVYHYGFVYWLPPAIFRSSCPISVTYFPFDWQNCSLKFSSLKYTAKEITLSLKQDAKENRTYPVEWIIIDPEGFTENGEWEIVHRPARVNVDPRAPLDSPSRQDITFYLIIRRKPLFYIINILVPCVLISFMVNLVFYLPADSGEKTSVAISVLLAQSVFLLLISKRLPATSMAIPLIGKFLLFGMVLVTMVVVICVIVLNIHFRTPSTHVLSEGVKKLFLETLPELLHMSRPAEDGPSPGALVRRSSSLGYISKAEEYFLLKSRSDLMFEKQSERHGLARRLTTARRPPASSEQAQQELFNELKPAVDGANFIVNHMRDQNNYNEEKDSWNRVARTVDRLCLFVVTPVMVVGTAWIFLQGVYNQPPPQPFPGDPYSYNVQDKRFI
Sequence of wild-type AChR (Q04844 21-493): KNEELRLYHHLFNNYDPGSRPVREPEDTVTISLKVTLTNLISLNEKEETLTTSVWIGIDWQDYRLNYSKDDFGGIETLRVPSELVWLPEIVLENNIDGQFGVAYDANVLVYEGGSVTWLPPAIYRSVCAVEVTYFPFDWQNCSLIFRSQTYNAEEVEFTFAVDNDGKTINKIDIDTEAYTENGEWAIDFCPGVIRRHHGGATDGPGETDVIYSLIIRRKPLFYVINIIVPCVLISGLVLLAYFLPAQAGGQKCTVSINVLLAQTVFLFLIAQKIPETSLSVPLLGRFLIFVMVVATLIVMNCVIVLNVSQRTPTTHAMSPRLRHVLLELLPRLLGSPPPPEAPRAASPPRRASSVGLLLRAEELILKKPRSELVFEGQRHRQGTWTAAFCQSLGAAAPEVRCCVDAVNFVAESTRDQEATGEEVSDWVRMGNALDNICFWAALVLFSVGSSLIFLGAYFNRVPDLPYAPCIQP

## CCCC(C(=O)OCCN(CC)CC)(c1ccccc1)c1ccccc1 [proadifen]
[1]
  increase of ACh affinity in the presence of proadifen: ~100 fold

## CC(=O)OCC[N+](C)(C)C [ACh, acetylcholine]
[2]
  difference in ACh affinity for the two sites: sixfold
[3]
  difference in ACh affinity for the two sites: ~100 fold
[4]
  difference in ACh affinity for the two sites: 32 fold
[5]; [6]
  Bursts τ1: 0.17 ± 0.025 ms
  Bursts τ2: 0.59 ms and 0.59 ± 0.061 ms
  Bursts, area of τ1 component: 0.61 ± 0.061
  Bursts, area of τ2 component: 0.39 ± 0.061
  Open intervals τ1: 0.17 ± 0.021 ms
  Open intervals τ2: 0.51 ± 0.037 ms
  Open intervals, area of τ1 component: 0.65 ± 0.19
  Open intervals, area of τ2 component: 0.34 ± 0.096
[5]; Fig. 1 histogram, one patient, 5 μM ACh
  burst duration time constant τ1: 0.185
